Measurements: patent publication US11104933B1, “Compositions and methods for determining the presence of active leukocyte cells using an electrochemical assay” (Cleu Diagnostics, LLC, priority 2016, dated 2021)

Legend:
[1] = tested on: leukocyte esterase (LE); experiment: internally calibrated electrochemical continuous enzyme assay (ICECEA) with TAPTA as enzyme substrate; type: biochemical; settings: LE concentrations 0-250 μg/L, amperometric current (FIG. 4)
Procedure: ICECEAs generally follow the following method as described in U.S. 201610040209. First, an enzyme substrate (e.g. an LE and/or HNE substrate of the present disclosure) is placed in a background electrolyte. Next, a reactant or product of an enzymatic reaction of the enzyme is added to the first enzyme substrate/background electrolyte, which creates what is described as a “first assay mixture.” Current flowing through an electrode of the electrochemical assay is then measured after the first assay mixture is formed. Next, the enzyme (e.g. LE and/or HNE) is added to the “first assay mixture” to create a “second assay mixture,” and the current is measured again over a predetermined time period. Enzyme activity is determined based on the change in current over time caused by the addition of the enzyme. […]
The ICECEA includes an electrochemical measuring device. […] The current is measured through the working electrode. […]
Generally, in an ICECEA, adding the reactant/product to the enzyme substrate (in electrolyte) in the electrochemical assay system includes the following steps. […] Current flowing through an electrode of the electrochemical assay system is measured after the first aliquot is added. One or more additional aliquots of the reactant/product are added to the mixture and current flowing through an electrode of the electrochemical assay system is measured again. […]

[2] = tested on: leukocyte esterase (LE); experiment: screen-printed electrode strip with monoester substrate, voltammograms at varying LE concentrations; type: biochemical; settings: substrate screen-printed on electrode strip; 0.125 U/m to 0.35 U/ml LE (FIG. 7)
Source text: In one embodiment, the substrate of the leukocyte esterase enzyme is screen-printed onto the surfaces of an electrode sensor strips using known and commercially-available techniques and materials.
Specifically, electrode strips were screen printed with the substrate having the structure as depicted in Formula V. The strips were contacted with varying concentrations of LE (i.e. 0.125 U/m to 0.35 U/ml LE).
The plot clearly indicates significant reduction peaks at about −0.17 V, which correspond to the redox reaction of hydroquinone molecules that are released upon cleavage of the monoester by leukocyte esterases at the ester active site. […] Based on this measured level, a determination can be made as to whether the patient's level of LE is high enough to indicate infection.

Structure (SMILES) | response of LE enzyme activity relative to LE concentration [1] | relation of reduction peaks to LE activity in the sample [2] | melting point [°C]
Cc1ccc(S(=O)(=O)N[C@@H](C)C(=O)Oc2ccc(OC(=O)[C@H](C)NS(=O)(=O)c3ccc(C)cc3)cc2)cc1 [TAPTA, 4-((tosyl-L-alanyl)oxy)phenyl tosyl-L-alaninate] | linear response relative to LE concentration |  | 
COC(=O)c1cncc(S(=O)(=O)N[C@@H](C)C(=O)Oc2ccc(O)cc2)c1 [monoester] |  | directly related to the LE activity within the sample in a dose dependent manner | 113 to 116
